The test system of one experiment is hCMVEC cells. Briefly: Scrape load assay (Lucifer yellow dye transfer). In kind it is cell-based, human. The method, then: In the below Examples 2, 4, 5, 8 and 10 using human cerebral microvascular endothelial cells (hCMVEC), cells were prepared by growing them in collagen coated (30 μg/mL) T25 or T75 flasks maintained in Medium M199 supplemented with 10% FCS, 1 μg/mL hydrocortisone, 3 ng/mL hFGF, 1 ng/mL hEGF, 10 μg/mL heparin, 1× penicillin streptomycin neomycin (Life Technologies), and cAMP (100 μL 100% cAMP to 100 mL media). Cells were maintained at 37° C. with 95% O2 and 5% CO2.
In this Example, human cerebral microvascular endothelial cells (hCMVEC) were grown in collagen coated (1 μg/mL) T25 flasks maintained in Medium M199 supplemented with 10% FBS, 1 μg/mL hydrocortisone, 3 ng/mL hFGF, 1 ng/mL hEGF, 10 μg/mL heparin and cAMP (100 μL 100% cAMP to 100 mL media) in a humidified atmosphere at 37° C. with 5% CO2. One day prior to experimentation, these cells were trypsinized and plated at a density of 4×10^5 cells/well in a collagen-coated 12 well-plate in the same medium. For treatments, cells were cultured in the presence of peptide5, a control gap junction channel blocker (carbenoxolone), or tonabersat for the respective time intervals prior to scrape dye loading. The blockers were also present in the respective scrape loading solutions.
For scrape loading the hCMVEC cells were washed three times with phosphate buffered saline (PBS) (without divalent cations). A solution of PBS+0.05% lucifer yellow was added to cells. The cells then received a scrape to the monolayer using a size 10 carbon steel surgical blade and incubated in the dark at 37° C. with 5% CO2 for 5 minutes. The cells were washed with PBS four times and then 1 mL of PBS added for fluorescent microscopy.
The live cells were then imaged on a Nikon TE2000E fluorescent microscope whilst maintained in a chamber heated to 37° C. with 5% CO2. Three images pairs were obtained at 10× magnification for each of a phase contrast image to view total cells and a fluorescent image to visualize Lucifer yellow using 488 nm excitation and a GFP filter block. Gap junctional communication was determined by counting the number of Lucifer yellow positive cells and presented as a percentage to the positive cells of the control group. Data was graphed as mean+standard error of the mean using Prism v5.02 software. Significance was determined through students two-tailed, unpaired, T Tests. *=p<0.05, **=[…], ***=p<0.001.
An in vitro scrape-loading assay with extracellular Lucifer Yellow (LY), a fluorescent dye that is transferred only through coupled GJs was performed to test whether Tonabersat inhibits GJ communication (M. H. el-Fouly, et al., Experimental cell research 168, 422 (February, 1987)). A single scrape wound was made to a confluent monolayer of hCMVEC cells to enable LY dye to gain access to the cytoplasm of cells at the edge of the wounded region and allow the dye to transfer to adjacent cells through GJs.

For experiment [1], the target named is T1, Cx43 GJ plaques in ARPE-19 cells (Homo sapiens, UniProt P17302).
T1 construct: a native human cell line, retinal pigmented epithelial cells (ARPE-19), which reportedly has an abundant expression of Cx43; endogenous in cells; host or cells: ARPE-19
The experiment in a line: Immunocytochemistry and quantification of Cx43 plaques. In kind it is cell-based. As for the experimental part: In the below Examples 3, 6 and 7 using human retinal epithelial (ARPE-19) cells, the cells were grown in DMEM/F: 12 (Invitrogen), supplemented with 10% fetal calf serum (FCS), 100 units/mL of penicillin, 100 μg/mL of streptomycin, and 0.25 μg/mL of Fungizone® Antimycotic (Invitrogen).
Cells were seeded at 0.05×10^6 per well in 8-well sterile glass microscope chamber slides (Falcon, Corning Life Sciences), and the monolayer was labeled for connexin expression at ˜90-100% confluency. The following steps were conducted at room temperature. Cells were fixed in 4% paraformaldehyde (P6148, Sigma-Aldrich) in PBS with 0.1 mM CaCl2 for 10 min, and washed three times in PBS with 0.1 mM CaCl2. After blocking in 10% normal goat serum in PBS with 0.1 mM CaCl2 for one hour, cells were incubated overnight in primary antibody solution (rabbit anti-Cx43, Sigma C6219) diluted in PBS with 0.1 mM CaCl2. The chamber slides were then washed three times with PBS containing 0.1 mM CaCl2 for 10 minutes, and incubated for a further 45 minutes in goat anti-rabbit Alexa 568 conjugated secondary antibody (Invitrogen #A11036). Cells were counter labeled with DAPI for 5 minutes and washed three times with PBS containing 0.1 mM CaCl2. Chamber wells were removed and cells were mounted anti-fade medium (Citiflour AF-1). Dilution ratios for specified primary and secondary antibodies were used according to manufacturer's recommendations.
ARPE-19 cells were grown until confluent in 8-well glass chamber-slides (BD Falcon). Confluent monolayers of ARPE-19 cells were incubated at a final concentration of 5 to 500 μM) Tonabersat, and/or 10 mM NH4Cl (H. Qin, et al., The Journal of biological chemistry 278, 30005 (Aug. 8, 2003)) in culture medium for 1 or 6 hours. Cells were fixed in 4% PFA (ProSciTech) at pH 7.4 for 10 min at room temperature, permeabilized with 0.05% Triton-X100 in PBS, and incubated in 10% normal goat serum to block non-specific labelling. Cells were rinsed three times with PBS containing 0.1 mM CaCl2 between each fixation, permeabilization, and blocking steps. Cx43 polyclonal rabbit antibody (C6219, Sigma, 1:2000) was applied for 24 hours, followed by a goat anti-rabbit Alexa Fluor® 568 secondary antibody (Invitrogen, 1:200) for 45 minutes. Nuclei were counterstained with DAPI (Invitrogen) at 10,000-fold dilution for 5 mins, and mounted with Citifluor™ mounting medium. Images were visualised and captured using a 63× oil immersion lens on an Olympus FV1000 upright confocal laser scanning microscope and software. The transfluor feature in MetaXpress® Image acquisition and analysis software (Version 5.3.0.1, Molecular Devices) was used to automate and quantify the total area of Cx43 plaques per image. Results represent mean±standard error and statistical tests were conducted using one-way ANOVA and Tukey's multiple comparisons test.

“Also recorded” adds a separate entry of the source.

T1 sequence (P17302 2-382 limits assumed): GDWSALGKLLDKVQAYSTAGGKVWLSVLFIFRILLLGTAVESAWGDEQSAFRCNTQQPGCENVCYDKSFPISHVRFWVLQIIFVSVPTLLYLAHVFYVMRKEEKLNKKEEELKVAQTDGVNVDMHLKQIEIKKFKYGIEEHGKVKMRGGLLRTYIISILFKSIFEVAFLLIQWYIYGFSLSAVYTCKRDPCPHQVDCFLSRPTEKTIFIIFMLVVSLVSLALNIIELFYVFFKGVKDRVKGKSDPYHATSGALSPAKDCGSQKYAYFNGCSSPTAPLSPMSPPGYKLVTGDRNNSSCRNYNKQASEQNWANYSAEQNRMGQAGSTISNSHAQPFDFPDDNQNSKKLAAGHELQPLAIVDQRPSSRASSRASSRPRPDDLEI

As for `CC(=O)c1ccc2c(c1)[C@H](NC(=O)c1ccc(F)c(Cl)c1)[C@H](O)C(C)(C)O2` [Tonabersat, N-[(3S,4S)-6-acetyl-3-hydroxy-2,2-dimethyl-3,4-dihydrochromen-4-yl]-3-chloro-4-fluorobenzamide], the “concentration at which GJs are uncoupled” value in the experiment with hCMVEC cells is at least 50 µM. In addition, the “time to gap junction uncoupling effect” value with hCMVEC cells (50 μM) was at most 1 min. Besides, the “gap junction uncoupling (LY dye transfer)” value in the experiment with hCMVEC cells (50 μM added immediately) is recorded as “did not significantly reduce GJ coupling”; in the experiment with hCMVEC cells (50 μM added immediately, listed as tonabersat), “statistically significant gap junction uncoupling effect”; with hCMVEC cells (50 μM, 1 hour prior to the assay) it was “did not significantly reduce GJ coupling”. Further, the “LY positive cells compared to control” value is recorded as 72.5±7.4% with hCMVEC cells (50 μM, 2 hours); 62.8±7.4% with hCMVEC cells (50 μM, 6 hours); 50.5±8.4% with hCMVEC cells (50 μM, 24 hours); 46.7±7.8% in the experiment with hCMVEC cells (100 μM); “no significant reduction in LY positive cells” with hCMVEC cells (0.1, 1 and 10 μM, 2 hours); “no significant reduction in LY positive cells” with hCMVEC cells (0.1, 1 and 10 μM, 24 hours). In addition, the “total area of Cx43 plaques per cell, normalized to untreated control” value is “no significant reduction in Cx43 plaques” in experiment [1] (5 μM, 10 μM or 50 μM, 1 hour); 52.8±5.6% in experiment [1] (100 μM, 1 hour); 66.5±5.4% in experiment [1] (100 μM, 6 hours); 63.2±5.6% in experiment [1] (200 μM, 1 hour); 62.5±2.3% in experiment [1] (200 μM, 6 hours); 60.2±13.6% in experiment [1] (500 μM, 6 hours). Also, the “Connexin43 gap junction labelling” value in experiment [1] (50 μM, 6 hours) was “most junctions have been internalised or lost; also recorded: total gap junction loss at cell-cell interfaces”; in experiment [1] (100 micromolar, 6 hours), “very little Connexin43 labelling remains”. The “increase in Cx43 labelling with 10 mM NH4Cl compared to Tonabersat alone” value is on record as 104.8% in experiment [1] (100 μM, 1 hour) and 65.4% in experiment [1] (200 μM, 1 hour).
